Read-outs that look alike come from different tables or passages of the source. Each block holds one compound with its values, some of them ahead of it.
Tests used:
[1] = clinical; type: in vivo, human; set-up: AUC0–24h: concentration or dose not given beside the values; details: for AUC(0-t): read-out: AUC0–24h
Description: SPE procedure was conducted to extract and concentrate the (poly)phenolic compounds and their metabolites from the plasma samples. Briefly, plasma samples were thawed on ice and 500 µL plasma was diluted with 1.5 mL of 0.1% formic acid in water with addition of internal standards (2-methylhippuric acid (2 ng/mL), phloridizin (1 ng/mL)) before being loaded on preconditioned SPE cartridges. The cartridges were washed with 0.1% formic acid in water (1 mL) after loading with plasma samples. The elution of the compounds was achieved by 0.1% formic acid in methanol (1 mL) and the eluent was dried under nitrogen gas at room temperature. […] Supernatant was collected in amber HPLC vials before analysis.
The absorption and elimination of 11 major mango metabolites over 24 h was determined after MP, MP + VC, and VC intake. The plasma concentration/area at each time point was determined by the mean of 13 subjects. The time vs. concentration curves and the time vs. area curves were created using GraphPad Prism (version 8.2.1). […] Tmax is the time (h) when Cmax was achieved. Wilcoxon signed-rank test was used for Tmax analysis due to non-normal distribution. Area under the plasma concentration time curve (AUC0−24h, nmol·h/L) was calculated by the linear trapezoidal method using Microsoft Excel 2013, version 15 [63]. […]

[2] = Concentration of (poly)phenolic metabolites in fasting urine at baseline, 24 h after single MP beverage and 15th day after 14-day MP intake (UHPLC-QQQ-MS); details: human, urine, oral
Source text: The acute trial was a randomized, 3 arm, within-subject crossover study design (Figure 5A). The trial initiated with 3 days of food record collection to assess background (pre-study) dietary intake followed by counseling to adhere to a diet devoid of mango or its parts and relatively low in polyphenol-rich beverages/foods, which was maintained throughout the duration of the trial. […] In general, subjects were encouraged to follow their “usual” diet with the exception of foods/beverages that may interfere with the outcomes of the study. Food intake diaries and, phone call and email reminders helped subjects maintain compliance throughout the study period. After an initial 7-day run-in period on the limited polyphenol diet, subjects were assigned to a randomization sequence providing 1 of 3 study test beverages (recipes provided in Appendix A, Table A3) on three separate days in a random order: MP (500 g), MP (500 g) + VC (100 mg) or VC (100 mg) beverages. On each study day subjects arrived fasted and well hydrated. After standard admission procedures were completed (e.g., review of compliance with dietary requirements for 3 days prior to study day, dinner meal intake, usual sleep patterns), a catheter was placed by a registered nurse in subjects’ non-dominant arm and a fasting/baseline blood sample was collected (0 h). Subjects were provided with a standard breakfast meal 2 h after the study beverages. The breakfast meal was comprised of a buttermilk biscuit with butter and jelly, and scrambled egg white with shredded white cheddar cheese. After the 6 h blood collection, subjects ate a low polyphenol lunch consisting of dry roasted peanuts and fresh peeled cucumber with ranch dressing (Appendix A, Table A3).
Spot urine samples were collected in urine collection cups, immediately placed on ice and then aliquoted into individual cryovials. All the samples were stored at −80 °C until analysis.
A 14-day feeding trial was conducted with the MP only to study the effect of repetitive intake of MP on (poly)phenolic metabolite profiles. Upon completion of the acute trial, subjects were instructed to continue on the low polyphenolic diet for 2 weeks while consuming MP beverages (provided by CNRC) daily in the morning (250 g MP + 50 g water) and evening (250 g MP + 50 g water). On day 14, subjects consumed both beverages (500 g of MP in total) in the morning and reported to the CNRC on the 15th day after an overnight fast to provide a fasting blood and urine sample (Figure 5B). Blood and urine samples were collected as described above and stored at −80 °C until analysis.
The supernatant was collected and filtered through 0.2 µm polypropylene syringe filter before HPLC analysis.
The ESI conditions were the same as those used in the UHPLC-Q-TOF analysis. The quantification of the compounds was conducted by multiple-reaction monitoring (MRM) transitions. Spectra were recorded in both positive- and negative-ion mode with capillary voltage of 4500 V and drying gas flow rate of 9 L/min at 200 °C. The sheath gas temperature and flow rate were 300 °C and 11 L/min, respectively. Standards were optimized for collision energies, fragmentor voltages and MRM transitions using Mass Hunter Optimizer. The MRM transition for metabolites were created based on the results from UHPLC-Q-TOF-MS. Standards for plasma analysis were prepared in blank plasma (charcoal-stripped human plasma obtained from Bioreclamation IVT) for matrix match and for urine analysis were prepared in SMP.
The flow rate was maintained at 0.4 mL/min and the injection volume was 5 μL. The mobile phase consisted of acidified water (0.1% formic acid) (A) and acidified acetonitrile (0.1% formic acid) (B). The gradient for the separation of compounds was as follows: 5 to 5% B from 0 to 1 min; 10% B at 3 min; 15% B at 7 min; 15% B at 9 min; 20% B at 10 min; 20% B at 11 min; 25% B at 12 min; 30% B at 13 min; 30% B at 14 min; 95% B at 15 min; and back to 5% B at 16 min.

[3] = increase observed, statistical outcome
[4] = human plasma, 0−24 h, after VC (vitamin C 100 mg) beverage, mean ± standard error, read-out: Cmax
[5] = human plasma, after VC beverage, mean ± standard error
[6] = human plasma, after MP + VC beverage, mean ± standard error

Compound: O=C(O)c1cc(O)c(O)c(O)c1 [Compound C1, gallic acid]
time within which absorbed ([1]; after acute mango intake): 1 to 2 h | difference in plasma concentrations/areas after MP + VC beverage compared to MP beverage alone [1, 3]: not statistically significant | AUC(0-t) ([1]; oral, 100 mg, human plasma, after VC beverage, mean ± standard error): 0.0249 ± 0.0019 µM·h | AUC(0-t) ([1]; oral, 500 g, human plasma, after MP beverage, linear trapezoidal method, mean ± standard error): 0.0645 ± 0.0078 µM·h | Tmax ([1]; oral, 500 g, human plasma, after MP beverage, mean ± standard error, read-out: Tmax): 2.2 ± 0.4 h | Cmax ([1]; oral, human plasma, 0−24 h, after MP (mango pulp 500 g) beverage, mean ± standard error, n = 13, read-out: Cmax): 20.4 ± 3.1 nM | Cmax ([1]; oral, human plasma, 0−24 h, after MP + VC (mango pulp 500 g + vitamin C 100 mg) beverage, mean ± standard error, read-out: Cmax): 21.1 ± 3.9 nM | Cmax ([1]; oral, human plasma, 0−24 h, after VC (vitamin C 100 mg) beverage, mean ± standard error, read-out: Cmax): 5.3 ± 1.3 nM | AUC(0-t) ([1]; oral, human plasma, after MP + VC beverage, mean ± standard error): 0.0628 ± 0.0069 µM·h | Tmax ([1]; oral, human plasma, after MP + VC beverage, mean ± standard error, read-out: Tmax): 2 ± 0.3 h | concentration at 15 day [2]: 100 nM | concentration at 0 h ([2]; 500 g): 200 nM | concentration at 24 h ([2]; 500 g): 200 nM

Compound: O=C(O[C@@H]1O[C@H](CO)[C@@H](O)[C@H](O)[C@H]1O)c1cc(O)c(O)c(O)c1 [Compound C2]
Cmax ([1]; human, in vivo): 13.4 ± 1.9 nM | Tmax ([1]; human, in vivo): 2.4 ± 0.3 h | Cmax ([1]; human, in vivo, 100 mg): 2.1 ± 0.3 nM | difference in plasma concentrations/areas after MP + VC beverage compared to MP beverage alone ([1]; in vivo): not statistically significant | time within which absorbed ([1]; in vivo): 1 to 2 h

Compound: O=C(O)[C@H]1O[C@@H](Oc2ccccc2O)[C@H](O)[C@@H](O)[C@@H]1O [Compound C10, catechol glucuronide]
Cmax ([1]; human plasma, 0−24 h, after MP (mango pulp 500 g) beverage, mean ± standard error, n = 13, read-out: Cmax): 472 ± 270 nM | Cmax ([1]; human plasma, 0−24 h, after MP + VC (mango pulp 500 g + vitamin C 100 mg) beverage, mean ± standard error, read-out: Cmax): 186 ± 45.8 nM | Cmax [1, 4]: 10.6 ± 3.2 nM | AUC0–24h [1, 6]: 0.4833 ± 0.108 µM·h | Tmax [1, 6]: 8.3 ± 0.4 h | AUC0–24h ([1]; human plasma, after MP beverage, linear trapezoidal method, mean ± standard error): 1.8309 ± 1.391 µM·h | Tmax ([1]; human plasma, after MP beverage, mean ± standard error): 8.0 ± 0.6 h | AUC0–24h [1, 5]: 0.0448 ± 0.0051 µM·h

Compound: methylgallic acid [Compound C3]
Cmax [1, 4]: 4.8 ± 0.7 nM | AUC0–24h [1, 5]: 0.0259 ± 0.0019 µM·h | AUC0–24h ([1]; human, in vivo): 0.1611 ± 0.0136 µM·h | Cmax ([1]; human, in vivo): 54.5 ± 4.9 nM | Tmax ([1]; human, in vivo): 2.2 ± 0.3 h | difference in plasma concentrations/areas after MP + VC beverage compared to MP beverage alone ([1]; in vivo): not statistically significant

Compound: methylgallic acid sulfate [Compound C4]
Cmax [1, 4]: 6.3 ± 1.6 nM | AUC0–24h [1, 5]: 0.0247 ± 0.003 µM·h | AUC0–24h ([1]; human, in vivo): 1.6558 ± 0.274 µM·h | Cmax ([1]; human, in vivo): 824 ± 131 nM | Tmax ([1]; human, in vivo): 2.2 ± 0.2 h | difference in plasma concentrations/areas after MP + VC beverage compared to MP beverage alone ([1]; in vivo): not statistically significant

Compound: methylpyrogallol sulfate isomer 1 [Compound C6]
Cmax [1, 4]: 35.8 ± 9.5 nM | AUC0–24h [1, 5]: 0.1295 ± 0.036 µM·h

Now from value to compound:

Cmax [1, 4]: 2560 ± 894 nM | AUC0–24h [1, 5]: 5.5049 ± 1.7634 µM·h | AUC0–24h ([1]; human, in vivo): 18.8521 ± 3.4916 µM·h | Cmax ([1]; human, in vivo): 10000 ± 1780 nM | Tmax ([1]; human, in vivo): 7.3 ± 0.6 h
Compound: O=S(=O)(O)Oc1cccc(O)c1O [Compound C8]

time within which cleared from the bloodstream ([1]; after mango intake): 6 to 8 h | content in plasma (as observed from areas) after MP and MP + VC vs. VC beverage alone ([1]; area vs. time profile 0−24 h): significantly higher | plasma concentration relative to limit of quantitation ([1]; human plasma after test beverages intake): below the LOQ | Tmax ([1]; human, plasma, oral, 500 g, after mango intake, read-out: time to reach maximum concentration/area in plasma): 1 to 2 h | difference in plasma concentrations/areas after MP + VC beverage compared to MP beverage alone [1, 3]: not statistically significant
Compound: O=c1c2cc(O)c(O)cc2oc2cc(O)c([C@@H]3O[C@H](CO)[C@@H](O)[C@H](O)[C@H]3O)c(O)c12 [Compound C11, mangiferin]

Tmax [1, 5]: 8.0 ± 2.3 h
Compound: methylpyrogallol glucuronide [Compound C9]

Cmax [1, 4]: 76.6 ± 24.9 nM | AUC0–24h [1, 5]: 0.2166 ± 0.0545 µM·h
Compound: methylpyrogallol sulfate isomer 2 [Compound C7]
